Test results published in patent US20180036330A1, “NUCLEOTIDE PHOSPHORAMIDATE FORMULATION” (priority 2015, published 2018).
In brackets after ≈: the same amount, converted by molar mass. Like-named read-outs stand apart in the source and are kept apart here.

Assays:
Huh-Luc cell line = assay: Cell toxicity in the Huh-Luc cell line; type: cell-based
[1] = Solubility of Compound 1 in ethanol; type: physicochemical; conditions: for solubility: 99% ethanol, organic solvent or mixture, heated to 50-60° C., transparent syrup, read-out: solubility in ethanol: final concentration fully dissolved
Experimental: 100.43 mg of Compound 1 was weighed into a glass vial. 37 μl of 99% ethanol was added so that final concentration was 2700 mg/ml. The formulation was heated to 50-60° C. during gentle agitation until the drug substance was fully dissolved. A transparent syrup was obtained and the solution remained transparent after cooling and storage at room temperature for more than 48 hours with no visible crystals.
200.26 mg of Compound 1 was weighed into a glass vial. 67 μl of 99% ethanol was added so that final concentration was 3000 mg/ml. The formulation was heated to 50-60° C. during gentle agitation until the drug substance was fully dissolved. A transparent syrup was obtained.

[2] = tested on: HCV replicon (NS3-NS5B regions of HCV type 1 b) in Huh-7 luc/neo cells; assay: HCV replicon assay (Huh-Luc, luciferase); type: cell-based; conditions: Hepatitis C virus, Huh-7, 72 h, three days incubation, luciferase activity, n>10
Text: The compositions of the invention may be examined for activity in the inhibition of HCV RNA replication in a cellular assay aimed at identifying compounds that inhibit a HCV functional cellular replicating cell line, also known as HCV replicons. A suitable cellular assay is based on a bicistronic expression construct, as described by Lohmann et al. (1999), Science vol. 285 pp. 110-113 with modifications described by Krieger et al. (2001), Journal of Virology 75: 4614-4624, in a multi-target screening strategy.
The assay utilizes the stably transfected cell line Huh-7 luc/neo (hereafter referred to as Huh-Luc). […]
The replicon cells are plated in 384 well plates in the presence of the test and control compounds which are added in various concentrations. Following an incubation of three days, HCV replication is measured by assaying luciferase activity (using standard luciferase assay substrates and reagents and a Perkin Elmer ViewLux™ ultraHTS microplate imager). […] The inhibitory activity of a compound on luciferase activity is monitored on the Huh-Luc cells, enabling a dose-response curve for each test compound. […]

[3] = Basket dissolution test USP method 711 of Compound 1 in hard gelatin capsule (Example 3); type: physicochemical; conditions: for Mean % Compound 1 released: n = 2
Experimental: Dissolution test. 350 mg of Compound 1 was filled into a hard gelatin capsule. A basket dissolution test was performed according to USP method 711, at 100 rpm at 37° C., 900 g media, 5 ml sampling after 20, 45, 90 minutes. Samples were analysed by RP-UPLC. […] The lump was very sticky when wet but dried to a hard lump in air.

[4] = solvent not given, context ethanol, cited from earlier work

| SMILES | cell toxicity (Huh-Luc cell line) | time solution remained transparent with no visible crystals ([1]; 2700 mg/ml in 99% ethanol, after cooling, storage at room temperature) | appearance after cooling and storage at room temperature ([1]; 3000 mg/ml in 99% ethanol) | solubility ([1]; 100.43 mg in 37 μl 99% ethanol) | solubility ([1]; 200.26 mg in 67 μl 99% ethanol) | EC50 [2] | Mean % Compound 1 released ([3]; 0.1M HCl, 20 min, 350 mg in hard gelatin capsule, 37° C., 100 rpm) | Mean % Compound 1 released ([3]; 0.1M HCl, 45 min, 350 mg in hard gelatin capsule) | Mean % Compound 1 released ([3]; 0.1M HCl, 90 min, 350 mg in hard gelatin capsule) | observation of capsule during dissolution test ([3]; 350 mg in hard gelatin capsule, 90 min) | Mean % Compound 1 released ([3]; FaSSIF, 20 min, 350 mg in hard gelatin capsule) | Mean % Compound 1 released ([3]; FaSSIF, 45 min, 350 mg in hard gelatin capsule) | Mean % Compound 1 released ([3]; FaSSIF, 90 min, 350 mg in hard gelatin capsule) | solubility of the lump in 70% EtOH ([3]; lump formed from capsule, 70% EtOH) | published solubility ([4]; Cayman Chemical item no 15402 and Apex BT Catalog no. A3738) | published solubility ([4]; Selleckchem Catalog no S2794) |
| --- | --- | --- | --- | --- | --- | --- | --- | --- | --- | --- | --- | --- | --- | --- | --- | --- |
| CC(C)OC(=O)[C@H](C)N[P@](=O)(OC[C@H]1O[C@@H](n2ccc(=O)[nH]c2=O)[C@@](F)(Cl)[C@@H]1O)Oc1ccccc1 [Compound 1, (S)-Isopropyl 2-(((S)-(((2R,3R,4S,5R)-4-chloro-5-(2,4-dioxo-3,4-dihydropyrimidin-1(2H)-yl)-4-fluoro-3-hydroxytetrahydrofuran-2-yl)methoxy)(phenoxy)phosphoryl)amino)propanoate] | > 50 µM | more than 48 hours | solidified to a slightly opaque semisolid with no visible crystals | 2700 mg/mL (≈ 4910 mM) | 3000 mg/mL (≈ 5460 mM) | 0.055 µM | 2% | 3% | 5% | water insoluble lump that did not dissolve or change much during 90 min | 2% | 5% | 8% | surprisingly soluble |  |  |
| CC(C)OC(=O)[C@H](C)N[P@](=O)(OC[C@H]1O[C@@H](n2ccc(=O)[nH]c2=O)[C@](C)(F)[C@@H]1O)Oc1ccccc1 [sofosbuvir] |  |  |  |  |  |  |  |  |  |  |  |  |  |  | 25 mg/mL | 100 mg/mL |
